According to article PMC3407203, “Bisphenol A Binds to the Local Anesthetic Receptor Site to Block the Human Cardiac Sodium Channel” (PLoS ONE, 2012):

Columns and labels:
F1760A mutant of hNav1.5 [1] = biological target: T1, F1760A mutant of hNav1.5 (Homo sapiens, UniProt Q14524, F1760A); experiment: Use-dependent current decline of F1760A mutant hNav1.5, repetitive pulsing, whole-cell patch clamp; format: cell-based
T1 construct: expressed in transfected cells; host or cells: HEK293
Experimental: The plasmid DNA of hNav1.5 in pTracer was used (gift from Dirk Isbrandt, Hamburg, Germany) for mutagenesis of […] kit, Qiagen GmbH, Hilden) and was performed according to the instructions of the manufacturer. HEK293 cells were maintained in Dulbecco's Modified Eagle's Medium (Invitrogen, Carlsbad, CA), supplemented with 10% fetal bovine serum, 100 U/ml penicillin and 100 μg/ml streptomycin, and incubated at 37°C with 5% CO2. Briefly, HEK293 cells were plated at low density on 35 mm dishes 24 hours before transfection. […] Electrophysiology was performed 18-28 hours following transfections. Only cells with robust green fluorescence were included in the analysis.

hNav1.5 [2] = biological target: T2, hNav1.5 (Homo sapiens, UniProt Q14524); experiment: Tonic block of hNav1.5 currents, whole-cell patch clamp in transfected HEK293 cells; format: cell-based; details: for Kd: test pulse −10 mV at 0.2 Hz, room temperature, read-out: Kd of tonic block (Hill fit)
T2 construct: expressed in transfected cells; host or cells: HEK293
Experimental: (§1) The plasmid DNA of hNav1.5 in pTracer was used (gift from Dirk Isbrandt, Hamburg, Germany) for mutagenesis of F1760A (Qickchange XL kit, Qiagen GmbH, Hilden) and was performed according to the instructions of the manufacturer. HEK293 cells were maintained in Dulbecco’s Modified Eagle’s Medium (Invitrogen, Carlsbad, CA), supplemented with 10% fetal bovine serum, 100 U/ml penicillin and 100 µg/ml streptomycin, and incubated at 37°C with 5% CO2. […] Cells were transfected at 40–70% confluency using Nanofectin (PAA Laboratories GmbH, Pasching, Austria), according to manufacturer’s instructions, with 1 µg of hNav1.5 or the F1760A mutant of hNav1.5 and 0.5 µg EGFP, and distributed onto several 35 mm dishes on the following day. […] Only cells with robust green fluorescence were included in the analysis.
Whole-cell patch-clamp experiments were performed at room temperature using an Axopatch 200A operated by Clampex 9.2 software (Axon Instruments, Molecular Devices, USA) and 1–2 MΩ glass electrodes (WPI Inc, USA). […] All reagents were purchased from Sigma Chemical Company (Deisenhofen, Germany) unless otherwise noted. The tip of a constantly running gravity-driven perfusion system was positioned close to the recorded cell and drugs were applied by switching to bath solution containing the indicated concentration. […] Capacitive transients were cancelled, and series resistances (<5 MΩ) were compensated by 65–95%. Leak currents were subtracted digitally online using the P/4 procedure following the test pulses except for recordings of use dependency, where no leak correction was used. Currents were filtered at 10 kHz and sampled at 100 kHz, except for steady-state fast inactivation, where a sampling rate of 20 kHz was used.Recordings were obtained 4 min after establishing the whole-cell configuration. […] The block occurring 15 pulses after BPA or ETOH application (Ipost/Ipre = [drawing 1] ) was used as indicator for tonic block. The resulting single dose response data were fitted with a Hill function using a Levenberg-Marquard algorithm of Origin’s non linear curve fitter, where start and end were set to 0 and 1, respectively.

hNav1.5 [3] = biological target: T2, hNav1.5; experiment: Use-dependent current decline of hNav1.5, repetitive pulsing, whole-cell patch clamp; format: cell-based; details: for use-dependent block: 30 µM, WT hNav1.5, Vhold −120 mV
Source text: […] Current responses were normalized to the first recorded pulse and the available currents at the 30th pulses were compared.

hNav1.5 [4] = biological target: T2, hNav1.5; experiment: Dissociation constants for resting (Kr) and inactivated (Ki) hNav1.5 channels, whole-cell patch clamp; format: cell-based; details: determined with 30 µM drug; read-out: Kr, dissociation constant for resting channels
Experimental: The dissociation constant for the resting channels, Kr, of the applied drugs were determined according to [17], [18]: with [drug] being the drug concentration present and Brest being the detected block of resting channels. […] This potential was determined for each cell individually by the above described protocol for steady-state fast inactivation.

[5] = set-up: method as in PMID 12387626; details: cited from earlier work
hNav1.5 [6] = biological target: T2, hNav1.5; experiment: Voltage dependence of steady-state fast inactivation of hNav1.5, whole-cell patch clamp; format: cell-based
Experimental: Whole-cell patch-clamp experiments were performed at room temperature using an Axopatch 200A operated by Clampex 9.2 software (Axon Instruments, Molecular Devices, USA) and 1–2 MΩ glass electrodes (WPI Inc, USA). […] All reagents were purchased from Sigma Chemical Company (Deisenhofen, Germany) unless otherwise noted. The tip of a constantly running gravity-driven perfusion system was positioned close to the recorded cell and drugs were applied by switching to bath solution containing the indicated concentration. […] Capacitive transients were cancelled, and series resistances (<5 MΩ) were compensated by 65–95%. Leak currents were subtracted digitally online using the P/4 procedure following the test pulses except for recordings of use dependency, where no leak correction was used. […] Fitting parameters (Kd) are given as best fit ± standard error.

[7] = cited from earlier work
hNav1.5 [8] = biological target: T2, hNav1.5; experiment: Activation and current decay of hNav1.5, whole-cell patch clamp; format: cell-based; details: post 100 µM BPA
Experimental: . The sodium channel conductance GNa was calculated using the following equation: […]
where INa is the amplitude of the current at the voltage Vm, and Erev is the reversal potential for sodium, which was determined for each cell individually. Activation curves were derived by plotting normalized GNa as a function of test potential and fitted using the Boltzmann equation: […]
where GNa,Max is the maximum conductance, Vhalf is the membrane potential at half-maximal activation, Vm is the membrane voltage and k is the slope factor.
Decay time constants were determined by fitting current recordings at test pulses to −10 mV for 40 ms from peak with a single exponential fit.

F1760A mutant of hNav1.5 [9] = biological target: T1, F1760A mutant of hNav1.5; experiment: Tonic block of F1760A mutant hNav1.5 currents, whole-cell patch clamp in transfected HEK293 cells; format: cell-based; details: Vhold −120 mV, tested every 5 s, read-out: Kd of tonic block (Hill fit)
Experimental: as §1
Whole-cell patch-clamp experiments were performed at room temperature using an Axopatch 200A operated by Clampex 9.2 software (Axon Instruments, Molecular Devices, USA) and 1–2 MΩ glass electrodes (WPI Inc, USA). […] All reagents were purchased from Sigma Chemical Company (Deisenhofen, Germany) unless otherwise noted. The tip of a constantly running gravity-driven perfusion system was positioned close to the recorded cell and drugs were applied by switching to bath solution containing the indicated concentration. […]

T2 sequence (Q14524 whole entry): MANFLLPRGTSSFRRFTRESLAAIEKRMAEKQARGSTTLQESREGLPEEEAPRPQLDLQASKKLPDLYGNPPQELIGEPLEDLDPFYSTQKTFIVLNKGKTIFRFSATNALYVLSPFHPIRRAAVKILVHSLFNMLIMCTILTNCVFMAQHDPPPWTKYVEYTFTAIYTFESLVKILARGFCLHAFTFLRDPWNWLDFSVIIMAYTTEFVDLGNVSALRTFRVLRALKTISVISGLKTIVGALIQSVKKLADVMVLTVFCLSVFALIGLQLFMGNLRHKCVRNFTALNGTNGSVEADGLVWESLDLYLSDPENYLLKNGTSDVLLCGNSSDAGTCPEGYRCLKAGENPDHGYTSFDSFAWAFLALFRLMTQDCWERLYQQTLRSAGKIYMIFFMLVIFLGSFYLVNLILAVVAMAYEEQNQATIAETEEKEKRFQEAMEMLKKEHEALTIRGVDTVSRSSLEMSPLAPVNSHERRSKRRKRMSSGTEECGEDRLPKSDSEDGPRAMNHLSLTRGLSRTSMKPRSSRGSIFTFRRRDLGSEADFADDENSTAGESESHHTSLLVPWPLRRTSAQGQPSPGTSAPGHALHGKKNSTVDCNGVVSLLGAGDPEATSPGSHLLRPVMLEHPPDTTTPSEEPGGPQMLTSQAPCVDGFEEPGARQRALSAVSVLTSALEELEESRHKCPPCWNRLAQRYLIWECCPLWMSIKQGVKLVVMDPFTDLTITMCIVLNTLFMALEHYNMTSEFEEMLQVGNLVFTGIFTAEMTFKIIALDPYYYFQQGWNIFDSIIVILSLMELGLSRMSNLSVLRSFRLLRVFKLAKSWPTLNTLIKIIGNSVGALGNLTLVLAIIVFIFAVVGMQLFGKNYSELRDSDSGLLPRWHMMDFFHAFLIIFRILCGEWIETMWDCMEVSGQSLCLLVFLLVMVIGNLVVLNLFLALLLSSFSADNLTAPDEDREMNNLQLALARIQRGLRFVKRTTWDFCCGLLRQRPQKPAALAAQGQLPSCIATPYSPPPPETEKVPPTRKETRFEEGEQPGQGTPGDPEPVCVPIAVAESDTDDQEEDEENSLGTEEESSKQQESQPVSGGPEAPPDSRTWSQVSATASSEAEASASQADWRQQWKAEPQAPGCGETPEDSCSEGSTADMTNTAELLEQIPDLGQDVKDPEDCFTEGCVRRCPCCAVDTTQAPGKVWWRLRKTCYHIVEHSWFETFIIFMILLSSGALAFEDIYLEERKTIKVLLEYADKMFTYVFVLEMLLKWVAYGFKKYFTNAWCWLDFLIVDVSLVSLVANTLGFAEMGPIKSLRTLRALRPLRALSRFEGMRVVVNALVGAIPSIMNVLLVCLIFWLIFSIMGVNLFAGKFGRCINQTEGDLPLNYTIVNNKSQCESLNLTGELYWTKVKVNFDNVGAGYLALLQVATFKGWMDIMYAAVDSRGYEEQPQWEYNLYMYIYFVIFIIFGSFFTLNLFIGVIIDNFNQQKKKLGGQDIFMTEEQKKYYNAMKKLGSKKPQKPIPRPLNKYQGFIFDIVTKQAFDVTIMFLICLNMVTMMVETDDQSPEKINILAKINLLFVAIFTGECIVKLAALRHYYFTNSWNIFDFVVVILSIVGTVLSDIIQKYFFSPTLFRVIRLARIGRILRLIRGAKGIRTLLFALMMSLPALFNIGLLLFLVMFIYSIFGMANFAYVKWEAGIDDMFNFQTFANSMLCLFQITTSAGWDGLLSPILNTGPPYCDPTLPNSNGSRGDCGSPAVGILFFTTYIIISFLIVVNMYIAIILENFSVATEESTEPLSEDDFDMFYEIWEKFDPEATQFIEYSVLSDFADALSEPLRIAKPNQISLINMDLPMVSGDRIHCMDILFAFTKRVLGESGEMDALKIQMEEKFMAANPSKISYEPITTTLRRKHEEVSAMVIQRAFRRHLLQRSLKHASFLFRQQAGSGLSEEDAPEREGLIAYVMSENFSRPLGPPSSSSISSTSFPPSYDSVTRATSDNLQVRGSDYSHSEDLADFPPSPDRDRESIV
T1 sequence (Q14524 whole entry F1760A): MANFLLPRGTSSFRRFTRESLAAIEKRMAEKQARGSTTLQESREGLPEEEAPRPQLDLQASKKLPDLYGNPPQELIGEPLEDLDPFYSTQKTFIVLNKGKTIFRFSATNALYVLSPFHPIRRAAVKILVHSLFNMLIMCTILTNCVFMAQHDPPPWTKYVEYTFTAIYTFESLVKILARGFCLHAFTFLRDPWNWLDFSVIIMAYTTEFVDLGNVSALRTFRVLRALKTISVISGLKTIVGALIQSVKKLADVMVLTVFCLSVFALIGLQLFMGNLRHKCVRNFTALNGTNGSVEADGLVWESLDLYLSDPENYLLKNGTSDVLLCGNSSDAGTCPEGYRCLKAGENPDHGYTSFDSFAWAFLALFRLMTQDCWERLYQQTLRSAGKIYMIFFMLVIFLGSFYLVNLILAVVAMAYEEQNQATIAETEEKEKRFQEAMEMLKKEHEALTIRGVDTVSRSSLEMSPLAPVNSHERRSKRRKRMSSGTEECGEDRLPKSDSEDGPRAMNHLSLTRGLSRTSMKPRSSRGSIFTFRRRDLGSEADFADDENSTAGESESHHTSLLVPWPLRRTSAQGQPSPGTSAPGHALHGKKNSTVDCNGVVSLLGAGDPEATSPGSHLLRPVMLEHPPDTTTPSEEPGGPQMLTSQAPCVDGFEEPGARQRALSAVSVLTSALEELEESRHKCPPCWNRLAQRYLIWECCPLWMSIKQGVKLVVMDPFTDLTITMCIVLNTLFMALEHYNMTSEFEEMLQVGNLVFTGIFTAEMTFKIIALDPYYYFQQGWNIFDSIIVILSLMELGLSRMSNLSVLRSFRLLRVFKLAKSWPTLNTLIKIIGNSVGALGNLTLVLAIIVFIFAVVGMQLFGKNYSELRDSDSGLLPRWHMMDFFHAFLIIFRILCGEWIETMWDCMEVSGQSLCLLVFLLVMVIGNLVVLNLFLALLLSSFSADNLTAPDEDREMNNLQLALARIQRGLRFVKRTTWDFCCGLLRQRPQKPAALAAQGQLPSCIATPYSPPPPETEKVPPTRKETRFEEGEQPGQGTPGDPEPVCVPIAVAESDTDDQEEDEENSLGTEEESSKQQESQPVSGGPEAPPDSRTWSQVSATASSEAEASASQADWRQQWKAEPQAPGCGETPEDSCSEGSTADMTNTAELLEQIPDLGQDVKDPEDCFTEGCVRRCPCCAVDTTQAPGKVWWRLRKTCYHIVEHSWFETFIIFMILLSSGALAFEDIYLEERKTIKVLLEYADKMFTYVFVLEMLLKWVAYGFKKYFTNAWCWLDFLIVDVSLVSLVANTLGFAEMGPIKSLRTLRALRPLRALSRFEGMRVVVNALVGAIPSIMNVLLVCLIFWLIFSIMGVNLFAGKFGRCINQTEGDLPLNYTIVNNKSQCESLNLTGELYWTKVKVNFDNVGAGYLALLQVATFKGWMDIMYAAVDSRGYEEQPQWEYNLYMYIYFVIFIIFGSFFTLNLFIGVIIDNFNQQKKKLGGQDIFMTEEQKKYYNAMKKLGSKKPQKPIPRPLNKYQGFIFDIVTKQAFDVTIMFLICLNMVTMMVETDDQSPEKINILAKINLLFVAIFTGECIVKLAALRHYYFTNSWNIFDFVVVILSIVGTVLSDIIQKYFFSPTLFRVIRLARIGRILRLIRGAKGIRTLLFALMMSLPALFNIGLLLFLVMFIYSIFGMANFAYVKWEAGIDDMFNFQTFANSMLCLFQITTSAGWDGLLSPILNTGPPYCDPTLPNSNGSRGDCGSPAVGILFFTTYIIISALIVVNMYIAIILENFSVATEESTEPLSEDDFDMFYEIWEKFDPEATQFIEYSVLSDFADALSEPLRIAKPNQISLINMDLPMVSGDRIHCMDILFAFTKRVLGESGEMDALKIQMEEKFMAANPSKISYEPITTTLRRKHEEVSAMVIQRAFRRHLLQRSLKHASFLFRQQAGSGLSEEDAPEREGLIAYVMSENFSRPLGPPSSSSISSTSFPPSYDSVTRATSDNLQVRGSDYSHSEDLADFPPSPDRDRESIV

SMILES | tonic and use-dependent block in F1760A compared to WT (F1760A mutant of hNav1.5 [1]; 150 µM) | tonic block (hNav1.5 [2]; 30 µM, WT hNav1.5) | use-dependent block (hNav1.5 [3]) | Kd (hNav1.5 [4]) [µM] | use-dependent block in F1760A compared to WT (F1760A mutant of hNav1.5 [1]; 30 µM) | half-life in the body [5] [h] | hyperpolarizing shift of Vhalf of steady-state fast inactivation (hNav1.5 [6]; 100 µM, n = 9) [mV] | slope factor k of steady-state fast inactivation (hNav1.5 [6]; post application of 100 µM BPA, pre 5.6±0.3) | Vhalf of steady-state fast inactivation (hNav1.5 [6]; post application of 100 µM BPA, pre −89.3±1.5 mV, n = 9) [mV] | Kd (hNav1.5 [2]; WT hNav1.5, Vhold −90 mV) [µM] | Kd (hNav1.5 [2]; WT hNav1.5, Vhold −120 mV) [µM] | lowest concentration tested at which hNav1.5 currents were not affected (no effect level, NOEL) (hNav1.5 [2]; tonic block) [nM] | lowest concentration to have a significant effect on hNav1.5 (hNav1.5 [2]; tonic block, Fig. 1A) [µM] | use-dependent current decline (hNav1.5 [3]; all frequencies tested (1 to 100 Hz), WT hNav1.5) | mean human blood levels [7] [nM] | highest reported blood level ([7]; human) [nM] | τ of single exponential fit of current decay (hNav1.5 [8]; test pulse to −10 mV, pre 1.1±0.08 ms) [ms] | Vhalf of activation (hNav1.5 [8]; pre −32.0±2.5 mV) [mV] | Kd (F1760A mutant of hNav1.5 [9]) [µM]
Cc1cccc(C)c1OCC(C)N (centres unmarked) [mexiletine, reference compound] | reduced tonic and use-dependent block | almost absent | significant use-dependent block | – | – | – | – | – | – | – | – | – | – | – | – | – | – | – | –
CC(C)(c1ccc(O)cc1)c1ccc(O)cc1 [BPA, Bisphenol A] | – | – | significant use-dependent block | 58.6 ± 8 | robustly reduced | < 6 | 15.8±1.1 | 6.5±0.2 | −105.1±2.1 | 25.4 ± 1.3 | 74 ± 7.6 | 100 | 1 | enhance use-dependent current decline | ~10 | 290 | 1.13 ± 0.1 | −32.9±3.7 | 104 ± 6.7
